This assay deals with P388 leukemia ip, CD2F1 mice, survival T/C. The experiment in a line: NCI In Vivo Anticancer Drug Screen. Data for tumor model P388 Leukemia (intraperitoneal) in CD2F1 (CDF1) mice. Conditions: endpoint: median survival time, higher = longer survival. The essentials: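 Mice carrying the transplanted tumor received test compound or vehicle. Survival was recorded in each group, and the value is the treated-group measurement divided by that of the vehicle-treated control group.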

The mark [1] stands for this setting: dose: 50.0 mg/kg/injection, schedule: Q01DX001 (ip), vehicle: saline with Tween-80.
Setting [2] is: dose: 100.0 mg/kg/injection, schedule: Q01DX001 (ip), vehicle: saline with Tween-80.
[3] abbreviates: dose: 200.0 mg/kg/injection, schedule: Q01DX001 (ip), vehicle: saline with Tween-80.
Setting [4] is: dose: 25.0 mg/kg/injection, schedule: Q04DX003 (ip), vehicle: saline with Tween-80.
The mark [5] stands for this setting: dose: 50.0 mg/kg/injection, schedule: Q04DX003 (ip), vehicle: saline with Tween-80.
The mark [6] stands for this setting: dose: 100.0 mg/kg/injection, schedule: Q04DX003 (ip), vehicle: saline with Tween-80.
Setting [7] is: dose: 60.0 mg/kg/injection, schedule: Q01DX005 (ip), vehicle: Klucel (hydroxypropylcellulose) (HPC).
Where [8] appears, read: dose: 120.0 mg/kg/injection, schedule: Q01DX005 (ip), vehicle: Klucel (hydroxypropylcellulose) (HPC).
[9] abbreviates: dose: 240.0 mg/kg/injection, schedule: Q01DX005 (ip), vehicle: Klucel (hydroxypropylcellulose) (HPC).
The mark [10] stands for this setting: dose: 50.0 mg/kg/injection, schedule: Q01DX005 (ip), vehicle: saline with Tween-80.
The mark [11] stands for this setting: dose: 100.0 mg/kg/injection, schedule: Q01DX005 (ip), vehicle: saline with Tween-80.
[12] abbreviates: dose: 200.0 mg/kg/injection, schedule: Q01DX005 (ip), vehicle: saline with Tween-80.
The mark [13] stands for this setting: dose: 50.0 mg/kg/injection, schedule: Q01DX005 (ip), vehicle: Klucel (hydroxypropylcellulose) (HPC).
The mark [14] stands for this setting: dose: 100.0 mg/kg/injection, schedule: Q01DX005 (ip), vehicle: Klucel (hydroxypropylcellulose) (HPC).
The mark [15] stands for this setting: dose: 200.0 mg/kg/injection, schedule: Q01DX005 (ip), vehicle: Klucel (hydroxypropylcellulose) (HPC).
The mark [16] stands for this setting: dose: 50.0 mg/kg/injection, schedule: Q01DX009 (ip), vehicle: saline with Tween-80.
Where [17] appears, read: dose: 100.0 mg/kg/injection, schedule: Q01DX009 (ip), vehicle: saline with Tween-80.
Where [18] appears, read: dose: 200.0 mg/kg/injection, schedule: Q01DX009 (ip), vehicle: saline with Tween-80.

“And” between values parts separate entries of the source, which are not always exact repeats. Equal values may be shown once. Toxic doses and inconclusive results are not listed.

Turning to `C=C1C(=O)O[C@@H]2C[C@@H](C)[C@@H]3CC(=O)OC[C@@]3(C)C[C@H]12`, the T/C by setting is: under setting [1], 100 % of control; under setting [2], 117 % of control; under setting [3], 118 % of control.

As for `Cc1ccc(S(=O)(=O)OCCN(CCOS(=O)(=O)c2ccc(C)cc2)c2ccc(N=O)cc2)cc1`, the T/C is 163 % of control under setting [4]; 168 % of control under setting [5]; 122 % of control (dose: 100.0 mg/kg/injection, schedule: Q04DX003 (ip), vehicle: saline sonified); 177 % of control under setting [6].

For the compound `COc1ccc(C2c3cc4c(cc3OC3(N5CCCC5)CCCCC23)OCO4)c(OC)c1` (stereo not drawn), the T/C was 87 % of control under setting [7], 90 % of control under setting [8] and 91 % of control under setting [9].

As for `COC(=O)[C@]1(CC[N+](=O)[O-])N=C(c2ccccc2)O[C@@H]1C`, the T/C reads like this: (dose: 60.0 mg/kg/injection, schedule: Q01DX005 (ip), vehicle: saline with Tween-80) 105 % of control; (dose: 120.0 mg/kg/injection, schedule: Q01DX005 (ip), vehicle: saline with Tween-80) 109 % of control; (dose: 240.0 mg/kg/injection, schedule: Q01DX005 (ip), vehicle: saline with Tween-80) 113 % of control.

In the case of `O=C(O)c1ccnc2ccc3ccccc3c12`, the T/C is 93 % of control under setting [10], 109 % of control under setting [11] and 118 % of control under setting [12].

Turning to `COc1ccc(OC)c2cc3c(cc12)C(=O)C(C)=C(C)C3=O`, the T/C under setting [13] is 89 % of control, the T/C under setting [14] was 86 % of control and the T/C under setting [15] is 88 % of control.

Turning to `O=C1Nc2ccc(Cl)cc2C(c2ccccc2)=NC1O` (stereo not drawn), the T/C reads like this: (dose: 12.5 mg/kg/injection, schedule: Q01DX009 (ip), vehicle: Klucel (hydroxypropylcellulose) (HPC)) 97 % of control; (dose: 25.0 mg/kg/injection, schedule: Q01DX009 (ip), vehicle: Klucel (hydroxypropylcellulose) (HPC)) 97 % of control; (dose: 50.0 mg/kg/injection, schedule: Q01DX009 (ip), vehicle: Klucel (hydroxypropylcellulose) (HPC)) 108 % of control; (dose: 100.0 mg/kg/injection, schedule: Q01DX009 (ip), vehicle: Klucel (hydroxypropylcellulose) (HPC)) 89 % of control; (dose: 200.0 mg/kg/injection, schedule: Q01DX009 (ip), vehicle: Klucel (hydroxypropylcellulose) (HPC)) 111 % of control; (dose: 400.0 mg/kg/injection, schedule: Q01DX009 (ip), vehicle: Klucel (hydroxypropylcellulose) (HPC)) 99 % of control.

`O=C(N1CCCCC1Cc1ccccc1)C(Cl)(Cl)Cl` (stereo not drawn): the T/C was 101 % of control (dose: 30.0 mg/kg/injection, schedule: Q01DX005 (ip), vehicle: Klucel (hydroxypropylcellulose) (HPC)) and 101 % of control under setting [7].

On to `CCCCOC(=O)CC(C(=O)OCCCC)C(C(=O)OCCCC)P(=O)(OCCCC)OCCCC` (stereo not drawn), for which the T/C was 99 % of control under setting [10], 100 % of control under setting [11] and 98 % of control under setting [12].

Take `CCN=C1C=C/C(=C(/c2ccc(NCC)c(C)c2)c2cc(O)c(S(=O)(=O)O)cc2S(=O)(=O)O)C=C1C`: the T/C (dose: 60.0 mg/kg/injection, schedule: Q01DX005 (ip), vehicle: saline) is 107 % of control; the T/C (dose: 120.0 mg/kg/injection, schedule: Q01DX005 (ip), vehicle: saline) is 106 % of control; the T/C (dose: 240.0 mg/kg/injection, schedule: Q01DX005 (ip), vehicle: saline) was 102 % of control.

As for `Cc1[nH]nc2c1NC(=O)OCC2`, the T/C is 101 % of control under setting [10], 101 % of control under setting [11] and 101 % of control under setting [12].

On to `CCCCN(CCCC)CCCNc1c2c(nc3ccc(Cl)cc13)CCCC2`, for which the T/C is 102 % of control (dose: 12.5 mg/kg/injection, schedule: Q01DX005 (ip), vehicle: saline with Tween-80); 104 % of control (dose: 25.0 mg/kg/injection, schedule: Q01DX005 (ip), vehicle: saline with Tween-80); 99 % of control and 101 % of control under setting [10].

Consider `N#Cc1c(NC(=O)Nc2cc(C(F)(F)F)ccc2Cl)sc(=S)c2c1CCCC2`, for which the T/C was 100 % of control under setting [10] and 103 % of control under setting [11].

For `Cc1c(-c2ccccc2)nc2sccn12`, the T/C is 102 % of control (dose: 25.0 mg/kg/injection, schedule: Q01DX009 (ip), vehicle: saline); 102 % of control (dose: 50.0 mg/kg/injection, schedule: Q01DX009 (ip), vehicle: saline); 96 % of control (dose: 100.0 mg/kg/injection, schedule: Q01DX009 (ip), vehicle: saline).

As for `Oc1nc2nc[nH]n2c1N=Nc1ccccc1`, the T/C is 115 % of control under setting [7], 98 % of control under setting [8] and 92 % of control under setting [9].

For `CN(C)C(=S)SCc1ccc(C(=O)O)nc1`, the T/C by setting is: under setting [16], 99 % of control; under setting [17], 98 % of control.

As for `C=C1CC2(CCOc3ccccc32)OC1=O` (stereo not drawn), the T/C is 105 % of control under setting [4]; 115 % of control under setting [5]; 108 % of control and 117 % of control under setting [6]; 90 % of control (dose: 200.0 mg/kg/injection, schedule: Q04DX003 (ip), vehicle: saline with Tween-80).

On to `CS(=O)(=O)OCCN(CCOS(C)(=O)=O)c1ccc(/C=N/Nc2ncnc3nc[nH]c23)cc1`, for which the T/C is 172 % of control under setting [16]; 177 % of control (dose: 66.0 mg/kg/injection, schedule: Q04DX003 (ip), vehicle: saline with Tween-80); 181 % of control under setting [17]; 177 % of control under setting [6]; 195 % of control (dose: 150.0 mg/kg/injection, schedule: Q04DX003 (ip), vehicle: saline with Tween-80).

On to `CC(C)(C)S(=O)(=O)C(C)(C)C`, for which the T/C by setting is: (dose: 25.0 mg/kg/injection, schedule: Q01DX001 (ip), vehicle: saline with Tween-80) 109 % of control; under setting [1], 111 % of control; under setting [2], 95 % of control; under setting [3], 100 % of control.

`CCC1NN1C(C)C` (stereo not drawn): the T/C runs as follows: (dose: 50.0 mg/kg/injection, schedule: Q04DX002 (ip), vehicle: saline with Tween-80) 100 % of control; (dose: 100.0 mg/kg/injection, schedule: Q04DX002 (ip), vehicle: saline with Tween-80) 95 % of control; (dose: 200.0 mg/kg/injection, schedule: Q04DX002 (ip), vehicle: saline with Tween-80) 107 % of control.

On to `CCOC(=O)N/N=C/c1ccc2c(c1)c1ccccc1n2CC`, for which the T/C runs as follows: under setting [13], 90 % of control; under setting [14], 98 % of control; under setting [15], 90 % of control.

Take `FC(F)(F)c1nnc(-c2ccccc2)nn1`: the T/C (dose: 100.0 mg/kg/injection, schedule: Q04DX002 (ip), vehicle: Klucel (hydroxypropylcellulose) (HPC)) was 100 % of control and the T/C (dose: 200.0 mg/kg/injection, schedule: Q04DX002 (ip), vehicle: Klucel (hydroxypropylcellulose) (HPC)) was 104 % of control.

For the compound `O=[N+]([O-])c1ccc(C(c2ccccc2)c2ccccc2)cc1`, the T/C under setting [18] is 90 % of control.

In the case of `CNC(=O)/C=C/C1=CN2C(=O)c3ccc(C)c(O)c3NC(OC)C2C1` (stereo not drawn), the T/C is, setting by setting: (dose: 0.01 mg/kg/injection, schedule: Q01DX009 (ip), vehicle: suspension in saline) 102 % of control and 115 % of control; (dose: 0.02 mg/kg/injection, schedule: Q01DX009 (ip), vehicle: suspension in saline) 116 % of control; (dose: 0.05 mg/kg/injection, schedule: Q01DX009 (ip), vehicle: saline) 121 % of control; (dose: 0.05 mg/kg/injection, schedule: Q01DX009 (ip), vehicle: suspension in saline) 120 % of control; (dose: 0.2 mg/kg/injection, schedule: Q01DX009 (ip), vehicle: saline) 92 % of control; (dose: 0.2 mg/kg/injection, schedule: Q01DX009 (ip), vehicle: suspension in saline) 97 % of control.

With `CSC(=S)N1CCN(C(=S)SC)C1=O`, the T/C was 108 % of control under setting [13], 96 % of control under setting [14] and 91 % of control under setting [15].

Regarding `O=C(NC(=O)C(F)(F)F)Nc1ccc(F)c(Cl)c1`, the T/C was 96 % of control under setting [16], 105 % of control under setting [17] and 104 % of control under setting [18].

The record behind these values is PubChem BioAssay AID330 (DTP/NCI, 2004).
